What was measured:
Assay in all cases: relative viability (nuclei count vs DMSO), 5 days (fraction); higher = more cells survive
[1] = system: NCI-H1993
Outline: (§1)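 A single step with final 0.05% Triton X-100, 1% formaldehyde and 1 ug/ml Hoechst fixed the cells and stained nuclei 5 days after treatment. Lung cancer cell lines in 1536-well plates had been treated by pin tool the day after seeding with one drug alone or a fixed anchor-drug dose plus five library-drug doses (not always all listed) in √10 steps, and nuclei were counted on 4× images. Relative viability is the ratio of nuclei in treated wells to nuclei in vehicle wells, taken as the median of duplicate plates.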

[2] = system: NCI-H2023
Outline: as §1

[3] = system: NCI-H520
Outline: as §1

[4] = system: NCI-H2170
Outline: as §1

[5] = system: NCI-H647
Outline: as §1

[6] = system: HCC-44
Outline: as §1

[7] = system: NCI-H1793
Outline: as §1

[8] = system: NCI-H2085
Outline: as §1

[9] = system: NCI-H1734
Outline: as §1

[10] = system: LOU-NH91
Outline: as §1

[11] = system: NCI-H1563
Outline: as §1

[12] = system: SW 900
Outline: as §1

Clc1ccc(Nc2nnc(Cc3ccncc3)c3ccccc23)cc1 [Vatalanib] + N=C(N)NC(=N)NCCc1ccccc1 [Phenformin] (partner 250 µM)
relative viability ([1]; first compound 0.1265 µM): 0.533 | relative viability ([1]; first compound 0.4 µM): 0.601 | relative viability ([1]; first compound 1.265 µM): 0.482 | relative viability ([1]; first compound 4 µM): 0.534 | relative viability ([2]; first compound 0.04 µM): 0.447 | relative viability ([2]; first compound 0.1265 µM): 0.397 | relative viability ([2]; first compound 0.4 µM): 0.477 | relative viability ([2]; first compound 1.265 µM): 0.376 | relative viability ([2]; first compound 4 µM): 0.341 | relative viability ([3]; first compound 0.04 µM): 0.722 | relative viability ([3]; first compound 0.1265 µM): 0.412 | relative viability ([3]; first compound 0.4 µM): 0.83 | relative viability ([3]; first compound 1.265 µM): 0.493 | relative viability ([3]; first compound 4 µM): 0.479 | relative viability ([4]; first compound 0.04 µM): 0.437 | relative viability ([4]; first compound 0.1265 µM): 0.476 | relative viability ([4]; first compound 0.4 µM): 0.469 | relative viability ([4]; first compound 1.265 µM): 0.405 | relative viability ([4]; first compound 4 µM): 0.353 | relative viability ([5]; first compound 0.04 µM): 0.466 | relative viability ([5]; first compound 0.1265 µM): 0.562 | relative viability ([5]; first compound 0.4 µM): 0.521 | relative viability ([5]; first compound 1.265 µM): 0.401 | relative viability ([5]; first compound 4 µM): 0.54 | relative viability ([6]; first compound 0.04 µM): 0.178 | relative viability ([6]; first compound 0.1265 µM): 0.257 | relative viability ([6]; first compound 0.4 µM): 0.0876 | relative viability ([6]; first compound 1.265 µM): 0.182 | relative viability ([6]; first compound 4 µM): 0.147 | relative viability ([7]; first compound 0.04 µM): 0.354 | relative viability ([7]; first compound 0.1265 µM): 0.341 | relative viability ([7]; first compound 0.4 µM): 0.435 | relative viability ([7]; first compound 1.265 µM): 0.295 | relative viability ([7]; first compound 4 µM): 0.296 | relative viability ([8]; first compound 0.04 µM): 0.701 | relative viability ([8]; first compound 0.1265 µM): 0.668 | relative viability ([8]; first compound 0.4 µM): 0.734 | relative viability ([8]; first compound 1.265 µM): 0.724 | relative viability ([8]; first compound 4 µM): 0.632 | relative viability ([9]; first compound 0.04 µM): 0.459 | relative viability ([9]; first compound 0.1265 µM): 0.328 | relative viability ([9]; first compound 0.4 µM): 0.463 | relative viability ([9]; first compound 1.265 µM): 0.322 | relative viability ([9]; first compound 4 µM): 0.346 | relative viability ([10]; first compound 0.04 µM): 0.694 | relative viability ([10]; first compound 0.1265 µM): 0.679 | relative viability ([10]; first compound 1.265 µM): 0.697 | relative viability ([10]; first compound 4 µM): 0.668 | relative viability ([11]; first compound 0.04 µM): 0.641 | relative viability ([11]; first compound 0.1265 µM): 0.673 | relative viability ([11]; first compound 0.4 µM): 0.666 | relative viability ([11]; first compound 1.265 µM): 0.712 | relative viability ([11]; first compound 4 µM): 0.639 | relative viability ([12]; first compound 0.1265 µM): 0.689 | relative viability ([12]; first compound 0.4 µM): 0.539 | relative viability ([12]; first compound 1.265 µM): 0.458 | relative viability ([12]; first compound 4 µM): 0.544

Reference: the supplement of paper PMC10307832
